We go through 22 compounds from US20100105655A1, “NOVEL COMPOUNDS 515” (ASTRAZENECA AB, priority 2008, published 2010).

This assay concerns the target T1, IGFR kinase (Homo sapiens, UniProt P08069).
T1 construct: purchased Millipore
As to the kind of experiment: Enzyme assay (c), IGFR kinase, Caliper LabChip. The format is biochemical. To be noted: 30 nM IGFR kinase, 6 uM ATP, 3 uM peptide mix; read-out: IGFR IC50.

T1 sequence (P08069 31-1367): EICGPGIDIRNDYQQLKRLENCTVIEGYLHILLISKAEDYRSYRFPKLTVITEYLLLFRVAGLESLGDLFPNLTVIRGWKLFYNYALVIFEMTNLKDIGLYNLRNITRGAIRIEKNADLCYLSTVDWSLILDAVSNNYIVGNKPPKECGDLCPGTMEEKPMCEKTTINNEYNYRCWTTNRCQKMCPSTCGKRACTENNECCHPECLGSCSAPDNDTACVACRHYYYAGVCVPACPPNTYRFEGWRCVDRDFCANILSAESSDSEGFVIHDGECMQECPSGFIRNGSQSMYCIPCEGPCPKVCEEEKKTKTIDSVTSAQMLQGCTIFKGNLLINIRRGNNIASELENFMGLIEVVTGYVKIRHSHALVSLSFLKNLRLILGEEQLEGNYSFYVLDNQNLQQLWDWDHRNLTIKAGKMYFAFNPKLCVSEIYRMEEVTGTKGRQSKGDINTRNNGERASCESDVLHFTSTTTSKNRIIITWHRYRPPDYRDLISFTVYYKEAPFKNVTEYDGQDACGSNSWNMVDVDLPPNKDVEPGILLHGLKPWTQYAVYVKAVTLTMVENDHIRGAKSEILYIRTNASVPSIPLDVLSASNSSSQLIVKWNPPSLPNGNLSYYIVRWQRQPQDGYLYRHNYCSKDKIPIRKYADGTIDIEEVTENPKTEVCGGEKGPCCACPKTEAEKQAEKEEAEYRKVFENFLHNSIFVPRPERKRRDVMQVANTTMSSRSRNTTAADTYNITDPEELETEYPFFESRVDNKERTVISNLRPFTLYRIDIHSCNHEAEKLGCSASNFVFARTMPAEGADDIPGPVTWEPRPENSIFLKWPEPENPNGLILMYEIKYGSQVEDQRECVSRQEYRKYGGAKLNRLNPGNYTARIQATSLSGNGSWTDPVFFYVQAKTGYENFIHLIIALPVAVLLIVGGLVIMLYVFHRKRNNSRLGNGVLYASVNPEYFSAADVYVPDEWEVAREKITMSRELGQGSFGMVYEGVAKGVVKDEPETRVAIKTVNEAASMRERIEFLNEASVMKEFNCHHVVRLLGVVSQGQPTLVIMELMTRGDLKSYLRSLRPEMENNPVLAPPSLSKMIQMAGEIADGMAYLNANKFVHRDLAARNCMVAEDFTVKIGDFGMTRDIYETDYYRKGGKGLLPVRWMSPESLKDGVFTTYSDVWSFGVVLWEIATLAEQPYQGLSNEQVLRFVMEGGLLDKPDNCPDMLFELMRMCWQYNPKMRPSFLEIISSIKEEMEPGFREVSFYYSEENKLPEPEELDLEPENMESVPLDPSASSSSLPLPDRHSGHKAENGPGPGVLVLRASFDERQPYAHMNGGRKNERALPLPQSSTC

For `COc1cc(N2CCN(C(C)=O)CC2)ccc1Nc1ncc(C)c(-c2cnn3ccccc23)n1` [Example 158, 1-[4-[3-methoxy-4-[(5-methyl-4-pyrazolo[1,5-a]pyridin-3-yl-pyrimidin-2-yl)amino]phenyl]piperazin-1-yl]ethanone], the IC50 stood at 15 nM.
Then `COc1cc(N2CC[C@@H](N(C)C)C2)ccc1Nc1ncc(Cl)c(-c2cnc3ccccn23)n1` [Example 3.11, 5-chloro-N-[4-[(3R)-3-dimethylaminopyrrolidin-1-yl]-2-methoxy-phenyl]-4-imidazo[1,2-a]pyridin-3-yl-pyrimidin-2-amine], with 69 nM; and `CNCC(=O)N1CCC(c2ccc(Nc3ncc(F)c(-c4cnn5ccccc45)n3)c(OC)c2)CC1` [Example 238, 1-[4-[4-[(5-fluoro-4-pyrazolo[1,5-a]pyridin-3-yl-pyrimidin-2-yl)amino]-3-methoxy-phenyl]-1-piperidyl]-2-(methylamino)ethanone], with 8 nM.
The same measure for `COc1cc(N2CC[C@@H](O)C2)ccc1Nc1ncc(Cl)c(-c2cnc3ccccn23)n1` [Example 3.49, (3R)-1-[4-[(5-chloro-4-imidazo[1,2-a]pyridin-3-yl-pyrimidin-2-yl)amino]-3-methoxy-phenyl]pyrrolidin-3-ol]: 19 nM.
For the compound `COc1cc(N(CCO)CCO)ccc1Nc1ncc(Cl)c(-c2cnc3c(F)cccn23)n1` [Example 223, 2-[4-[[5-chloro-4-(8-fluoroimidazo[1,2-a]pyridin-3-yl)pyrimidin-2-yl]amino]-N-(2-hydroxyethyl)-3-methoxy-anilino]ethanol], the IC50 came to 6 nM.
Turning to `COc1ccc(N2CC[C@@H](O)C2)cc1Nc1ncc(Cl)c(-c2cnc3ccccn23)n1` [Example 3.18, (3R)-1-[3-[(5-chloro-4-imidazo[1,2-a]pyridin-3-yl-pyrimidin-2-yl)amino]-4-methoxy-phenyl]pyrrolidin-3-ol], the IC50 came out at 41 nM.
With `COc1ccc(N2CC3CNCC(C2)O3)cc1Nc1ncc(Cl)c(-c2cnn3ccccc23)n1` [Example 189, 5-chloro-N-[2-methoxy-5-(9-oxa-3,7-diazabicyclo[3.3.1]nonan-7-yl)phenyl]-4-yrazolo[1,5-a]pyridin-3-yl-pyrimidin-2-amine], the IC50 is 95 nM.
The same measure for `COc1cc(N2CC3CN(C(=O)[C@H](C)O)CC(C2)O3)ccc1Nc1ncc(Cl)c(-c2cnc3c(F)cccn23)n1` [Example 213, (2S)-1-[3-[4-[[5-chloro-4-(8-fluoroimidazo[1,2-a]pyridin-3-yl)pyrimidin-2-yl]amino]-3-methoxy-phenyl]-9-oxa-3,7-diazabicyclo[3.3.1]nonan-7-yl]-2-hydroxy-propan-1-one]: 14 nM; for `COc1cc(C(C)C(=O)N2CCOCC2)ccc1Nc1ncc(Cl)c(-c2cnc3ccccn23)n1` (stereo not shown) [Example 3.39, 2-[4-[(5-chloro-4-imidazo[1,2-a]pyridin-3-yl-pyrimidin-2-yl)amino]-3-methoxy-phenyl]-1-morpholino-propan-1-one]: 31 nM; for `COc1cc(O[C@@H]2CCN(C(C)=O)C2)ccc1Nc1ncc(Cl)c(-c2cnc3ccccn23)n1` [Example 10, 1-[(3R)-3-[4-[(5-chloro-4-imidazo[1,2-a]pyridin-3-yl-pyrimidin-2-yl)amino]-3-methoxy-phenoxy]pyrrolidin-1-yl]ethanone]: 20 nM.
Regarding `COc1cc(N2CC[C@@H](N)C2)ccc1Nc1ncc(Cl)c(-c2cnc3ccccn23)n1` [Example 71, N-[4-[(3R)-3-aminopyrrolidin-1-yl]-2-methoxy-phenyl]-5-chloro-4-imidazo[1,2-a]pyridin-3-yl-pyrimidin-2-amine], the IC50 came out at 10 nM.
The same measure for `COc1cc(N2CCN(C(C)(C)CO)CC2)ccc1Nc1ncc(Cl)c(-c2cnn3ccccc23)n1` [Example 230, 2-[4-[4-[(5-chloro-4-pyrazolo[1,5-a]pyridin-3-yl-pyrimidin-2-yl)amino]-3-methoxy-phenyl]piperazin-1-yl]-2-methyl-propan-1-ol]: 5 nM; for `COc1cc(N2CC3CN(C(=O)CN(C)C)CC(C2)O3)ccc1Nc1ncc(Cl)c(-c2cnc3c(F)cccn23)n1` [Example 211, 1-[3-[4-[[5-chloro-4-(8-fluoroimidazo[1,2-a]pyridin-3-yl)pyrimidin-2-yl]amino]-3-methoxy-phenyl]-9-oxa-3,7-diazabicyclo[3.3.1]nonan-7-yl]-2-(dimethylamino)ethanone]: 19 nM; for `COc1cc(N2CCCC2C(=O)N2CCOCC2)ccc1Nc1ncc(Cl)c(-c2cnc3ccccn23)n1` (stereo not shown) [Example 3.2, [1-[4-[(5-chloro-4-imidazo[1,2-a]pyridin-3-yl-pyrimidin-2-yl)amino]-3-methoxy-phenyl]pyrrolidin-2-yl]-morpholino-methanone]: 54 nM.
With `COc1cc(C2CN(C(=O)[C@@H](C)O)C2)ccc1Nc1ncc(Cl)c(-c2cnn3ccccc23)n1` [Example 135B], the IC50 is 8 nM.
The same measure for `COc1cc(C2CCN(C(=O)CO)CC2)ccc1Nc1ncc(C)c(-c2cnn3ccccc23)n1` [Example 163, 2-hydroxy-1-[4-[3-methoxy-4-[(5-methyl-4-pyrazolo[1,5-a]pyridin-3-yl-pyrimidin-2-yl)amino]phenyl]-1-piperidyl]ethanone]: 16 nM.
The same measure for `COc1cc(N2CCNCC2)ccc1Nc1ncc(Cl)c(-c2cnn3ccccc23)n1` [Example 129, 5-chloro-N-(2-methoxy-4-piperazin-1-yl-phenyl)-4-pyrazolo[1,5-a]pyridin-3-yl-pyrimidin-2-amine]: 3 nM; for `Cc1ccc(N2CC[C@H](N(C)C)C2)cc1Nc1ncc(Cl)c(-c2cnc3ccccn23)n1` [Example 3.14, 5-chloro-N-[5-[(3S)-3-dimethylaminopyrrolidin-1-yl]-2-methyl-phenyl]-4-imidazo[1,2-a]pyridin-3-yl-pyrimidin-2-amine]: 30 nM; for `COc1cc(N2CCN(C(=O)[C@@H](C)OC)CC2)ccc1Nc1ncc(Cl)c(-c2cnc3ccccn23)n1` [Example 25.5, (2R)-1-[4-[4-[(5-chloro-4-imidazo[1,2-a]pyridin-3-yl-pyrimidin-2-yl)amino]-3-methoxy-phenyl]piperazin-1-yl]-2-methoxy-propan-1-one]: 9 nM.
Regarding `COc1ccc(OC[C@H]2CCCN2C(C)=O)cc1Nc1ncc(Cl)c(-c2cnc3ccccn23)n1` [Example 17, 1-[(2R)-2-[[3-[(5-chloro-4-imidazo[1,2-a]pyridin-3-yl-pyrimidin-2-yl)amino]-4-methoxy-phenoxy]methyl]pyrrolidin-1-yl]ethanone], the IC50 is 58 nM.
As to `COc1cc(N2CCN(C(=O)CNC(C)=O)CC2)ccc1Nc1ncc(Cl)c(-c2cnc3ccccn23)n1` [Example 25.2, N-[2-[4-[4-[(5-chloro-4-imidazo[1,2-a]pyridin-3-yl-pyrimidin-2-yl)amino]-3-methoxy-phenyl]piperazin-1-yl]-2-oxo-ethyl]acetamide], the IC50 came to 13 nM.
Turning to `COc1cc(C2CCN(C(=O)CO)CC2)ccc1Nc1ncc(Cl)c(-c2cnc3ccc(F)cn23)n1` [Example 244, 1-[4-[4-[[5-chloro-4-(6-fluoroimidazo[1,2-a]pyridin-3-yl)pyrimidin-2-yl]amino]-3-methoxy-phenyl]-1-piperidyl]-2-hydroxy-ethanone], the IC50 amounted to 5 nM.
